Here are results for eight compounds from ChEMBL document CHEMBL3621149, “Cytotoxic labdane-type diterpenes from Hedychium longipetalum inhibiting production of nitric oxide” (Bioorg Med Chem Lett, 2015).

≈ marks a conversion by molar mass, not a printed value. Peptide text beside a SMILES is read from it. * marks the point of attachment. Cbz = O=C(OCc1ccccc1)*

Common to all, as to type: functional, cell-based
In assay [1] the test system is HeLa. As to the kind of experiment: Cytotoxicity against human HeLa cells after 48 hrs by SRB assay. For orientation: In SRB staining, fixed cells bind dye roughly in proportion to their protein.
Assay [2] is described as follows: Cytotoxicity against human SGC7901 cells after 48 hrs by SRB assay. To be noted: SGC-7901, 48 h.
Assay [3] relates to RAW264.7. As to the kind of experiment: Inhibition of LPS and IFN-gamma-stimulated nitric oxide production in mouse RAW264.7 cells after 18 hrs by Griess method. To be noted: RAW264.7, 18 h. (In general: Nitrite, measured by Griess reagent, commonly stands in for NO production.)

As to `C=C1[C@@H](O)[C@@H](O)[C@H]2C(C)(C)CCC[C@]2(C)[C@H]1/C=C/C1=CCOC1=O`, the IC50 (in general, the midpoint of a concentration-inhibition curve) in assay [1] was greater than 25 µg/mL; in assay [2], greater than 25 µg/mL; in assay [3] it was 5.58 µg/mL (≈ 16.8 µM).
As to `C=C1C[C@@H](O)[C@H]2C(C)(C)CCC[C@]2(C)[C@H]1C/C=C1/CC(OC)OC1=O` (stereo partly specified), the IC50 in assay [1] was determined as 11.3 µg/mL (≈ 32.5 µM); in assay [2] it was 8.74 µg/mL (≈ 25.1 µM); in assay [3] it was 6.1 µg/mL (≈ 17.5 µM).
In the case of `C=C1[C@@H](O)C[C@H]2C(C)(C)CCC[C@]2(C)[C@H]1/C=C/C1=CC(=O)OC1O` (stereo partly specified) [HEDYFORRESTIN C], the IC50 in assay [1] was found to be 9.21 µg/mL (≈ 27.7 µM); in assay [2], 7.29 µg/mL (≈ 21.9 µM); in assay [3], 2.77 µg/mL (≈ 8.33 µM).
Consider `C=C1[C@@H](O)C[C@H]2C(C)(C)CCC[C@]2(C)[C@H]1/C=C/C1=CCOC1=O`, for which the IC50 in assay [1] worked out at 14.8 µg/mL (≈ 46.9 µM); in assay [2], 14.5 µg/mL (≈ 45.9 µM); in assay [3] it was 6.52 µg/mL (≈ 20.6 µM).
The matching figures for `C=C1C[C@@H](O)[C@H]2C(C)(C)CCC[C@]2(C)[C@H]1/C=C/c1ccoc1` [YUNNACORONARIN A]: 6.58 µg/mL (≈ 21.9 µM), 6.21 µg/mL (≈ 20.7 µM) and 0.56 µg/mL (≈ 1.86 µM).
In the case of `CC(=O)O[C@H]1C(=O)[C@@]2(C)[C@H]([C@H](OC(=O)c3ccccc3)[C@]3(O)C[C@H](OC(=O)[C@H](O)[C@@H](NC(=O)c4ccccc4)c4ccccc4)C(C)=C1C3(C)C)[C@]1(OC(C)=O)CO[C@@H]1C[C@@H]2O` [PACLITAXEL], the results for the IC50 in assay [1] and in assay [2] were 0.1 µg/mL (≈ 0.117 µM) and 0.2 µg/mL (≈ 0.234 µM), respectively.
In assay [3], `CC(C)C[C@@H](C=O)NC(=O)[C@H](CC(C)C)NC(=O)[C@H](CC(C)C)NC(=O)OCc1ccccc1` [MG-132] (Cbz-Leu-Leu-Leu-aldehyde) registered an IC50 of 0.08 µg/mL (≈ 0.168 µM).
With `CC1(C)CCC[C@]2(C)[C@@H]3C(=CC(=O)[C@@H]12)CO[C@H]3C(=O)c1ccoc1`, the half-maximal inhibitory concentration (IC50) in assay [1] is greater than 25 µg/mL; in assay [2], greater than 25 µg/mL; in assay [3] it was 7.5 µg/mL (≈ 22.8 µM).
